Source: ChEMBL document CHEMBL2062519, “The β-Amyloid Hypothesis in Alzheimer's Disease: Seeing Is Believing” (ACS Med Chem Lett, 2012)
pKi: −log10 of the molar value.

Target: Amyloid-beta precursor protein (Homo sapiens, UniProt P05067)
Experiment: Binding affinity to human amyloid beta plaque

Amyloid-beta precursor protein, sequence (P05067 whole entry): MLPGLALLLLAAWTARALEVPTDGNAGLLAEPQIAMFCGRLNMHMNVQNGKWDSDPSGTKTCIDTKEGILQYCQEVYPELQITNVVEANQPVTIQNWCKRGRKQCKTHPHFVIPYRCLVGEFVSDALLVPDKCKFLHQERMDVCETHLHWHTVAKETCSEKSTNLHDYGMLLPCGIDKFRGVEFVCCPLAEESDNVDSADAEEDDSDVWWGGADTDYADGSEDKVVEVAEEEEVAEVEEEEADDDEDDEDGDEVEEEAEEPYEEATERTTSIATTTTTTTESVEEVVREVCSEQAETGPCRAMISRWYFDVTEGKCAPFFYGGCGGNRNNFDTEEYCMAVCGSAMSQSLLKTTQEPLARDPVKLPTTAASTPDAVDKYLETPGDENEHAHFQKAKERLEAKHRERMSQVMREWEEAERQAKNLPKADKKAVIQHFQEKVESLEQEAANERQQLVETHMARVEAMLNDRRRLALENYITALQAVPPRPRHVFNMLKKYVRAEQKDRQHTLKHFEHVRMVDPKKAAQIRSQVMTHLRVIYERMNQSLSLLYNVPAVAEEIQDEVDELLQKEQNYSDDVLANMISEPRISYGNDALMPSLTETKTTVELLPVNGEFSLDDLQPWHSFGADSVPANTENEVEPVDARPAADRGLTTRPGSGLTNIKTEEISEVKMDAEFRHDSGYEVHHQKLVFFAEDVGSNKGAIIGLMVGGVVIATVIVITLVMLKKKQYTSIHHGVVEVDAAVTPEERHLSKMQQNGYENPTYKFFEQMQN

- pKi: 9.15
SMILES: CNc1ccc(-c2nc3ccc(O)cc3s2)cc1[18F] [FLUTEMETAMOL F 18]
